Results published in patent US20250114363A1, “PHARMACEUTICAL COMPOSITION COMPRISING ALLOPURINOL, FEBUXOSTAT, OR A PHARMACEUTICALLY ACCEPTABLE SALT THEREOF FOR PREVENTING OR TREATING CARDIOVASCULAR DISEASE OF SUBJECT HAVING HIGH SERUM URIC ACID LEVEL” (Indream Healthcare Inc., priority 2022, published 2025).

Key:
Assay type in all cases: in vivo, human
[1] = test system: patients with gout and a history of major cardiovascular diseases; assay: Clinical trial: rate of gout flare; settings: overall
Experimental: (§1) A multicenter, randomized, double-blind non-inferiority trial was performed. The details of the clinical trial design have been published previously. An independent data and safety monitoring committee with access to unblinded data monitored the clinical trial. The statistical analysis for the data and the safety monitoring committee was performed by an independent statistical group (WebbWrites).
(§2) The patients were regarded as having a history of major cardiovascular diseases, if they had myocardial infarction, hospitalization for unstable angina, stroke, hospitalization for transient ischemic attack, peripheral vascular disease, or diabetes mellitus symptoms. All participants provided a prior informed consent form.
All patients received prophylaxis for the first 6 months of the randomly assigned treatment.

[2] = test system: patients with gout and a history of major cardiovascular diseases; assay: Clinical trial analysis: risk of major cardiovascular events by serum uric acid concentration (<6 vs >=6) per patient group; settings: for increase in risk of occurrence of major cardiovascular events (hazard ratio): serum uric acid maintained at or above 6 vs below 6
Experimental: as §1, §2
The patients were randomly assigned so that they received febuxostat or allopurinol administered once a day in a double-blind manner. The randomization was stratified according to the estimated creatinine clearance at baseline (patient group having an estimated creatinine clearance ≥60 ml per minute vs patient group having an estimated creatinine clearance ≥30 and <60 ml per minute).
The dose of allopurinol was modified according to a kidney function. The patients with the estimated creatinine clearance 60 ml or more per minute i) initially received allopurinol at a dose of 300 mg once a day, and the dose was increased in 100 mg increments monthly until the patient had the serum uric acid concentration of less than 6.0 mg per deciliter or the dosage of allopurinol was 600 mg once a day. The patient having the estimated creatinine clearance of 30 ml or more and less than 60 ml per minute initially received 200 mg of allopurinol, and then the dose was increased in 100 mg increments until the patient either had the serum uric acid concentration of less than 6.0 mg per deciliter or was receiving the allopurinol dose of 400 mg once daily.
The dose of febuxostat was not modified according to the kidney function. The patients who were randomly assigned to receive febuxostat initially received 40 mg once a daily, and continued to receive the same dosage if the serum uric acid concentration was less than 6.0 mg per deciliter after 2 weeks of the treatment. If the serum uric acid concentration was higher than 6.0 mg per deciliter at 2nd week visit, the dose of febuxostat was increased to 80 mg once daily for the remainder of the trial.

[3] = test system: patients with gout and a history of major cardiovascular diseases; assay: Clinical trial: proportion of patients reaching serum uric acid concentration targets; settings: febuxostat group vs allopurinol group
Experimental: A multicenter, randomized, double-blind non-inferiority trial was performed. The details of the clinical trial design have been published previously. An independent data and safety monitoring committee with access to unblinded data monitored the clinical trial. The statistical analysis for the data and the safety monitoring committee was performed by an independent statistical group (WebbWrites). […] The patients were regarded as having a history of major cardiovascular diseases, if they had myocardial infarction, hospitalization for unstable angina, stroke, hospitalization for transient ischemic attack, peripheral vascular disease, or diabetes mellitus symptoms. All participants provided a prior informed consent form. The dose of allopurinol was modified according to a kidney function. […] The dose of febuxostat was not modified according to the kidney function. The patients who were randomly assigned to receive febuxostat initially received 40 mg once a daily, and continued to receive the same dosage if the serum uric acid concentration was less than 6.0 mg per deciliter after 2 weeks of the treatment. […] During the period, the administration of a double-blind and double-dummy trial medications was guided by an interactive voice-response system which was a procedure to prevent unblinding for the patients whose dose was not adjusted. After completing dose adjustment, the urate level was concealed from the investigators, and the treatment was managed throughout the trial using the interactive voice-response system. […] The patients with reduced kidney function or, the patients aged 65 years or older at randomization were visited at 9 and 15 months for monitoring the serum chemical profile. If the patient agreed to be monitored, but would not return for study visit, telephone contact was made, but such method was not preferred or recommended.

O=c1ncnc2[nH][nH]cc1-2 [allopurinol]
rate of gout flare [1]: 0.63 per patient-year | effect on cardiovascular disease when serum uric acid concentration is maintained below 6 ([2]; allopurinol: aged 65 years or older or BMI 30 kg/m^2 or less): effectively prevented or treated | increase in risk of occurrence of major cardiovascular events (hazard ratio) ([2]; patient group aged 65 years or older): about 1.68 times | increase in risk of occurrence of major cardiovascular events (hazard ratio) ([2]; patient group with BMI of 30 kg/m^2 or less): about 1.78 times

Cc1nc(-c2ccc(OCC(C)C)c(C#N)c2)sc1C(=O)O [febuxostat]
rate of gout flare [1]: 0.68 per patient-year | effect on cardiovascular disease when serum uric acid concentration is maintained below 6 ([2]; febuxostat: aged 65 or older, glucose 126 mg/dl or more, LDL-cholesterol 100 mg/dl or less, DBP 80 or lower, or stroke or peripheral vascular disease history): prevented or treated | proportion of patients with maintenance of serum uric acid concentration at less than 6.0 mg per deciliter ([3]; after 2nd week, at most times, difference not large): higher proportion | proportion of patients with serum uric acid concentration of less than 6.0 mg per deciliter ([3]; at the 2nd week): higher | proportion of patients with serum uric acid concentration of less than 5.0 mg per deciliter ([3]; entire trial): larger proportion
